# From patent EP4803142A2 (Kayothera Inc., priority 2021, dated 2022)
# How the values were obtained:
# [1] = biological target: T1, hALDH1a2 (Homo sapiens, UniProt O94788); assay: biochemical; conditions: read-out: hAldhla2 IC50
# T1 construct: pET-Aldh1a2 transformed BL21-DE3 cultures; cell extracts
# T1 sequence (O94788 1-518): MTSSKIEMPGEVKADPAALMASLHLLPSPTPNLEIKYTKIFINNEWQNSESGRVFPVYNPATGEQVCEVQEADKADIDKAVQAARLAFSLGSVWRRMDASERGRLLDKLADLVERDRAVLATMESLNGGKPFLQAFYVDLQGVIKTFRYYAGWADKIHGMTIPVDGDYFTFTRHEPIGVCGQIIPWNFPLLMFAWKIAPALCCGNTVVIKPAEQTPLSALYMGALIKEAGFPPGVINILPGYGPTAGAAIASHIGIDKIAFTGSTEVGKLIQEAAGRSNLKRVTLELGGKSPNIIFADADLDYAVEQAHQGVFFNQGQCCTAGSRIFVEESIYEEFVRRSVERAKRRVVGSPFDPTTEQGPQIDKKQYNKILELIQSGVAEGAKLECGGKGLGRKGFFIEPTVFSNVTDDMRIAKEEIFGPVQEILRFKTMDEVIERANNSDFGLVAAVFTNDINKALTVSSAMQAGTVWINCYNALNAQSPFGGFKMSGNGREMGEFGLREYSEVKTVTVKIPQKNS
# Description: (§1) Biological Example 5C. Aldh1a2 Enzyme Inhibition Assay
# (§2) Cell extracts were spun at 16000 x g for 5 minutes.
# (§3) Recombinant enzyme and inhibitor added immediately before assay. Reaction rate measured by resorufin fluorescence. […]
# (§4) Table 3B. IC50 values (nM) for inhibition of hALDH1a2 and mALDH1a2 of selected compounds
# [2] = biological target: T2, mALDH1a2 (Mus musculus, UniProt Q62148); assay: biochemical; conditions: read-out: mAldhla2 IC50
# T2 construct: pET-Aldh1a2 transformed BL21-DE3 cultures; cell extracts
# T2 sequence (Q62148 1-518): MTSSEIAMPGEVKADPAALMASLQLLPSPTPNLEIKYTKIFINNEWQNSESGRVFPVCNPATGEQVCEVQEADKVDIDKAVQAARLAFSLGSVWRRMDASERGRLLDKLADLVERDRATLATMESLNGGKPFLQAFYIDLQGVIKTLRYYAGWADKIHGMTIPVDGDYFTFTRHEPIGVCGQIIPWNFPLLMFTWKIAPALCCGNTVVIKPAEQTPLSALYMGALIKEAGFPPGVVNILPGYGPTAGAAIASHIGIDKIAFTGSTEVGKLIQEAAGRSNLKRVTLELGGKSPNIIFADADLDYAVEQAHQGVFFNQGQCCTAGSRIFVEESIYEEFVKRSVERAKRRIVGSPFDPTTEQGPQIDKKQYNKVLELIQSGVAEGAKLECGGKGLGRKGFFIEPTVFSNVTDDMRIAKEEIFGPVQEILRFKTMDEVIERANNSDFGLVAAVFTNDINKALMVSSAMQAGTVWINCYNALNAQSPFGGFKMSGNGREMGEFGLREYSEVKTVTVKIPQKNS
# Description: as §1, §2, §3, §4
SMILES,IC50 [1],IC50 [2]
CC1(C)Cc2cc(Nc3cc(Cl)c(Cl)cn3)ccc2NC1=O [compound 125],4.49 µM,4.05 µM
O=C1CCc2cc(Oc3ncc4ccccc4n3)ccc2N1 [compound 119],> 10 µM,10 µM
CC1(C)Cc2cc(Nc3cnc4ccc(C(=O)O)cc4n3)ccc2NC1=O [compound 118],> 10 µM,> 10 µM
CCc1cc(=O)n(C)cc1C(=O)Nc1ccc2c(c1)CCC(=O)N2 [compound 76],6.56 µM,4.31 µM
CC(C)Cc1cnccc1C(=O)Nc1cc2c(cc1F)NC(=O)CC2 [compound 7],3.5 µM,9 µM
COC(=O)c1ccc2ncc(Nc3ccc4c(c3)CC(C)(C)C(=O)N4)nc2c1 [compound 120],10 µM,> 10 µM
CCc1c[n+]([O-])ccc1C(=O)Nc1ccc2c(c1)CCC(=O)N2 [compound 73],> 10 µM,> 10 µM
CC1(C)Cc2cc(Nc3cccc(Cl)n3)ccc2NC1=O [compound 122],> 10 µM,> 10 µM
CC1(C)Cc2cc(Nc3ccc(Cl)c(Cl)n3)ccc2NC1=O [compound 97],0.466 µM,0.294 µM
CCc1c[nH]c(=O)cc1C(=O)Nc1ccc2c(c1)CCC(=O)N2 [compound 51],> 10 µM,> 10 µM
O=C1CCc2cc(NC(=O)c3ccncc3CC3CC3)c(F)cc2N1 [compound 81],0.376 µM,0.522 µM
CCc1cnccc1C(=O)Nc1ccc2c(c1)CC(C)(CC)C(=O)N2 (centres unmarked) [compound 62],> 10 µM,> 10 µM
Cc1cnccc1/C=C/c1ccc2c(c1)CCC(=O)N2 [compound 30],9 µM,11.1 µM
CC1(C)Cc2cc(Nc3cnc4ccccc4n3)c(F)cc2NC1=O [compound 109],0.042 µM,0.045 µM
CC1(C)Cc2cc(Nc3nc4ccccc4[nH]3)ccc2NC1=O [compound 98],3.08 µM,1.29 µM
CCc1cnccc1C(=O)Nc1ccc2c(c1)CN(C)C(=O)N2 [compound 20],> 10 µM,> 100 µM
Cc1cc(C(=O)Nc2ccc3c(c2)CCC(=O)N3)ccn1 [compound 24],100 µM,100 µM
Cc1cccc2nc(Nc3ccc4c(c3)CCC(=O)N4)ccc12 [compound 87],0.419 µM,0.149 µM
CCc1cnc(C)cc1C(=O)Nc1cc2c(cc1F)NC(=O)CC2 [compound 8],9 µM,5 µM
CCc1c(C(=O)Nc2ccc3c(c2)CCC(=O)N3)cc[nH]c1=O [compound 50],> 10 µM,> 10 µM
Cc1ccc2nc(Nc3ccc4c(c3)CCC(=O)N4)ccc2c1 [compound 89],10 µM,0.489 µM
CCc1cnccc1C(=O)Nc1ccc2c(c1)C(F)(F)C(=O)N2 [compound 136],> 10 µM,> 10 µM

SMILES,IC50 [1],IC50 [2]
O=C1CCc2cc(NC(=O)c3ccncc3)c(F)cc2N1 [compound 2],> 10 µM,10 µM
O=C1CCc2cc(Nc3nccc4ccccc34)ccc2N1 [compound 22],20 µM,25 µM
Cc1ccc(C(=O)Nc2ccc3c(c2)CCC(=O)N3)cc1C [compound 11],> 10 µM,> 10 µM
Cc1nc(Nc2ccc3c(c2)CC(C)(C)C(=O)N3)nc2ccccc12 [compound 132],0.071 µM,0.053 µM
O=C1CCc2cc(NCc3cc[nH]c3)c(F)cc2N1 [compound 17],10 µM,10 µM
CCc1cnc(C)cc1C(=O)Nc1ccc2c(c1)CCC(=O)N2 [compound 56],10 µM,1.26 µM
CCc1cnccc1C(=O)Nc1ccc2c(c1)CC(C)C(=O)N2 (centres unmarked) [compound 63],0.538 µM,0.297 µM
CC1(C)Cc2cc(Nc3c[nH]c4c(c3=O)CCCC4)ccc2NC1=O [compound 135],> 10 µM,> 10 µM
CC1(C)Cc2cc(Nc3ccc4ccccc4n3)ccc2NC1=O [compound 46],0.248 µM,0.162 µM
CCc1cc(C#N)ccc1C(=O)Nc1cc2c(cc1F)NC(=O)C(C)(C)C2 [compound 42],6.36 µM,2.6 µM
N#Cc1ccc2ccc(Nc3ccc4c(c3)CCC(=O)N4)nc2c1 [compound 90],10 µM,6.38 µM
CC1(C)Cc2cc(Nc3ccc(Cl)cn3)ccc2NC1=O [compound 123],> 10 µM,> 10 µM
Cc1ccccc1C(=O)Nc1ccc2c(c1)CCC(=O)N2 [compound 13],5 µM,2.95 µM
CCc1cnc(F)cc1C(=O)Nc1ccc2c(c1)CCC(=O)N2 [compound 78],0.46 µM,0.366 µM
CCc1ccccc1C(=O)Nc1cc2c(cc1F)NC(=O)CC2 [compound 4],5 µM,4 µM
Cn1ccc2nc(Nc3ccc4c(c3)CC(C)(C)C(=O)N4)ccc21 [compound 113],> 10 µM,> 10 µM
Cc1cccc2ccc(Nc3ccc4c(c3)CC(C)(C)C(=O)N4)nc12 [compound 111],0.196 µM,0.145 µM
Cc1ccc(Nc2ccc3c(c2)CC(C)(C)C(=O)N3)nc1C [compound 96],> 10 µM,> 10 µM
CCc1cnc(Cl)cc1C(=O)Nc1cc2c(cc1F)NC(=O)CC2 [compound 80],0.384 µM,0.324 µM
CCc1cnccc1/C=C/c1cc2c(cc1F)NC(=O)CC2 [compound 45],0.293 µM,3.33 µM
O=C1CCc2cc(Nc3ccc4ccccc4n3)ccc2N1 [compound 35],0.148 µM,0.1 µM
Cc1cnccc1C(=O)Nc1cc2c(cc1F)NC(=O)CC2 [compound 15],10 µM,10 µM

SMILES,IC50 [1],IC50 [2]
Cc1ccc(C(=O)Nc2ccc3c(c2)CCC(=O)N3)c(C)c1 [compound 12],> 10 µM,> 10 µM
CCc1c(C(=O)Nc2ccc3c(c2)CCC(=O)N3)ccnc1C [compound 55],> 10 µM,> 10 µM
O=C1CCc2cc(Nc3ccc4ccccc4n3)c(F)cc2N1 [compound 47],0.099 µM,0.072 µM
CN(C)Cc1cnccc1C(=O)Nc1ccc2c(c1)CCC(=O)N2 [compound 58],> 10 µM,> 10 µM
CC1(C)Cc2cc(Nc3ccc4ccccc4n3)c(F)cc2NC1=O [compound 48],0.099 µM,0.097 µM
CCCc1cnccc1C(=O)Nc1cc2c(cc1F)NC(=O)CC2 [compound 5],9 µM,10 µM
Cc1cnccc1C(=O)Nc1ccc2c(c1)CCC(=O)N2 [compound 21],30 µM,32 µM
C=CCc1cnccc1C(=O)Nc1ccc2c(c1)CCC(=O)N2 [compound 71],0.963 µM,0.747 µM
Cc1ccc(C)c(CNc2ccc3c(c2)CCC(=O)N3)c1 [compound 10],9 µM,3.5 µM
CC(C)c1cnccc1C(=O)Nc1cc2c(cc1F)NC(=O)CC2 [compound 6],> 10 µM,10 µM
CCc1cnccc1C(=O)Nc1cc2c(cc1F)NC(=O)CC2(C)C [compound 40],1.04 µM,3.33 µM
CC1(C)Cc2cc(Nc3cnc4ccccc4n3)ccc2NC1=O [compound 92],0.04 µM,0.031 µM
CCc1cnccc1/C=C/c1ccc2c(c1)CC(C)(C)C(=O)N2 [compound 43],1.2 µM,3 µM
Cc1cc2ccccc2nc1Nc1ccc2c(c1)CC(C)(C)C(=O)N2 [compound 134],0.125 µM,0.097 µM
CCc1cnccc1C(=O)Nc1cc2c(cc1Cl)NC(=O)CC2 [compound 70],> 10 µM,2.96 µM
CC(C)=Cc1cnc(C)cc1C(=O)Nc1ccc2c(c1)CC(C)(C)C(=O)N2 [compound 69],> 10 µM,> 10 µM
CCc1cnccc1C(=O)Nc1ccc2c(c1)CC1(CC1)C(=O)N2 [compound 61],2.04 µM,1.81 µM
CC1(C)Cc2cc(Nc3ccc4c(c3)NC(=O)CC4)ccc2NC1=O [compound 114],> 10 µM,> 10 µM
CCc1cnccc1C(=O)Nc1ccc2c(c1)C(C)CC(=O)N2 (centres unmarked) [compound 64],2.79 µM,5 µM
COc1cnccc1C(=O)Nc1cc2c(cc1F)NC(=O)C(C)(C)C2 [compound 41],9 µM,11.1 µM
